Results as given in patent publication US9296698B2, “Amino heteroaryl compounds as beta-secretase modulators and methods of use” (Amgen Inc., priority 2009, dated 2016).
pIC50: −log10 of the molar value. Like-named read-outs stand apart in the source and are kept apart here.

Tests used:
[1] = biological target: BACE 1 (Beta Secretase enzyme) (Homo sapiens, UniProt P56817); experiment: In vitro enzymatic BACE FRET assay; type: biochemical
Experimental: In Vitro Enzymatic BACE FRET (Fluorescence Resonance Energy Transfer) Assay (Enzyme Assay Data in Table 1)
The assay buffer used in this screen is 0.05 M acetate, pH 4.2, 10% DMSO final, 100 uM genapol (which is a nonionic detergent, below its Critical Micelle Concentration). […] The assay is effectively started by the addition of FRET substrate (50 nM) and the combination is incubated for one hour. The FRET assay is terminated with by addition of Tris buffer, which raises the pH to neutrality, and the fluorescence is determined. The FRET substrate is a peptide with commercially available fluorophore and quencher, on opposite sides of the BACE cleavage site.

[2] = test system: Aβ40 in conditioned medium of cells stably expressing Amyloid Precursor Protein (APP); experiment: In vitro BACE cell-based assay (HEK cell assay), Aβ40 sandwich ELISA
Experimental: In Vitro BACE Cell-Based Assay:
The cell-based assay measures inhibition or reduction of Aβ40 in conditioned medium of test compound treated cells expressing amyloid precursor protein.
Cells stably expressing Amyloid Precursor Protein (APP) were plated at a density of 40K cells/well in 96 well plates (Costar). The cells were cultivated for 24 hours at 37° C. and 5% CO2 in DMEM supplemented with 10% FBS. The test compounds were then added to cells in 10-point dose response concentrations with the starting concentration being either 100 μM or 10 μM. The compounds were diluted from stock solutions in DMSO and the final DMSO concentration of the test compounds on cells was 0.1%. After 24 h of incubation with the test compounds the supernatant conditioned media was collected and the Aβ 40 levels were determined using a sandwich ELISA. The IC50 of the compound was calculated from the percent of control or percent inhibition of Aβ 40 as a function of the concentration of the test compound.
The sandwich ELISA to detect Aβ 40 was performed in 96 well microtiter plates, which were pre-treated with goat anti-rabbit IgG (Pierce). The capture and detecting antibody pair that were used to detect Aβ 40 from cell supernatants were affinity purified pAb40 (Biosource) and biotinylated 6E10 (Signet Labs Inc.), respectively. The optimal concentration for the pAb40 antibody was 3 μg/ml in Superblock/TBS (Pierce) that was supplemented with 0.05% Tween 20 (Sigma).
Cellular supernatants were incubated with the capture antibody for 3 h at 4° C., followed by 3 wash steps in TBS-tween (0.05%). The detecting antibody incubation was for 2 h at 4° C., again followed by the wash steps as described previously. The final readout of the ELISA is Time-Resolved Fluorescence (counts per minute) using Delfia reagents Streptavidin-Europium and Enhancement solutions (Perkin Elmer) and the Victor 2 multilabel counter (Perkin Elmer).

[3] = IC50 range symbols, Table 1, read-out: BACE 1 FRET assay
[4] = Homo sapiens, HEK293, 24 h, IC50 range symbols, Table 1, Aβ40, 24 h incubation, read-out: HEK cell assay
[5] = bound stated, read-out: IC50 value in the FRET BACE enzyme assay
[6] = IC50 range symbols, Table 1, Aβ40, 24 h incubation, read-out: HEK cell assay

BACE 1 (Beta Secretase enzyme), sequence (P56817 46-501, species assumed): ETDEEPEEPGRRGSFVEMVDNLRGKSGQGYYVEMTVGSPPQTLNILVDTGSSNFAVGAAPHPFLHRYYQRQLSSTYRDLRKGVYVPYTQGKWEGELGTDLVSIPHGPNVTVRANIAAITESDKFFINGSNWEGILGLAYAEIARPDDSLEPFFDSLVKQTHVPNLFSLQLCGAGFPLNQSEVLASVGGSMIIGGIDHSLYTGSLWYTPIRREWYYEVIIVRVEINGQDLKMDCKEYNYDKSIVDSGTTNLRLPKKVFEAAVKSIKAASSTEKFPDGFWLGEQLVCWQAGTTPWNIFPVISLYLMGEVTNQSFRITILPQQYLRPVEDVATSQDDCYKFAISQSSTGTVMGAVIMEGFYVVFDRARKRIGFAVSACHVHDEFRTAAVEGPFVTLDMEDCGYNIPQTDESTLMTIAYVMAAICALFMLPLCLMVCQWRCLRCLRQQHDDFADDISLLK

Row | Molecule | pIC50 [1, 3] | pIC50 [2, 4] | pIC50 [1, 5] | pIC50 ([2]; Homo sapiens, HEK293, bound stated in text, read-out: IC50 value in the BACE cell-based in-vitro assay) | pIC50 [2, 6]
1 | Cc1ccccc1-c1ccc2nc(N)c(CCCNC(=O)C3CCCCC3)cc2c1 [Example 48, N-(3-(2-amino-6-o-tolylquinolin-3-yl)propyl)cyclohexanecarboxamide] | > 6.30 | 5.30 to 6.00 |  |  | 
2 | Cc1cccnc1-c1ccc2nc(N)c(CC(C)C(=O)NCCC3CC3)cc2c1 (stereo not shown) [Example 111, 3-(2-amino-6-(3-methylpyridin-2-yl)quinolin-3-yl)-N-(2-cyclopropylethyl)-2-methylpropanamide] | > 6.30 | 5.30 to 6.00 |  |  | 
3 | Cc1ccccc1-c1ccc2nc(N)c(CC(C)C(=O)N[C@H](C)c3ccccc3OC(F)F)cc2c1 (stereo partly drawn) [Example 77, 3-(2-amino-6-o-tolylquinolin-3-yl)-N-((R)-1-(2-(difluoromethoxy)phenyl)ethyl)-2-methylpropanamide] | > 6.30 | 5.30 to 6.00 |  |  | 
4 | Cc1ccccc1-c1ccc2nc(N)c(CC(C)C(=O)Nc3ccccc3)cc2c1 (stereo not shown) [Example 51, 3-(2-amino-6-o-tolylquinolin-3-yl)-2-methyl-N-phenylpropanamide] | > 6.30 | 5.30 to 6.00 |  |  | 
5 | Cc1cccc(C(=O)N2CCCC2)c1-c1ccc2nc(N)c(CC(C)C(=O)Nc3ccccc3)cc2c1 (stereo not shown) [Example 153, 3-(2-amino-6-(2-methyl-6-(pyrrolidine-1-carbonyl)phenyl)quinolin-3-yl)-2-methyl-N-phenylpropanamide] | > 6.30 | > 6.30 | > 7.30 | > 7.00 | 
6 | Cc1cccnc1-c1ccc2nc(N)c(CC(C)C(=O)NC[C@@H]3CCCOC3)cc2c1 (stereo partly drawn) [Example 89, 3-(2-amino-6-(3-methylpyridin-2-yl)quinolin-3-yl)-2-methyl-N-(((S)-tetrahydro-2H-pyran-3-yl)methyl)propanamide] | > 6.30 | 6.00 to 6.30 |  |  | 
7 | Cc1ccccc1-c1ccc2nc(N)c(CC(C)C(=O)NCC3CCCOC3)cc2c1 (stereo not shown) [Example 92, 3-(2-amino-6-o-tolylquinolin-3-yl)-2-methyl-N-((tetrahydro-2H-pyran-3-yl)methyl)propanamide] | > 6.30 | > 6.30 |  |  | 
8 | Cc1ccccc1-c1cc2cc(CCC(=O)NCCC(C)(C)C)c(N)nc2cn1 [Example 135, 3-(2-amino-6-o-tolyl-1,7-naphthyridin-3-yl)-N-(3,3-dimethylbutyl)propanamide] | > 6.30 | < 5.30 | > 7.30 |  | 
9 | CC(C)c1ccccc1-c1ccc2nc(N)c(CCC(=O)NCC3CCCCC3)cc2c1 [Example 72, 3-(2-amino-6-(2-isopropylphenyl)quinolin-3-yl)-N-(cyclohexylmethyl)propanamide] | > 6.30 | < 5.30 |  |  | 
10 | Cc1cccnc1-c1cc2cc(CC(C)C(=O)NCCC(C)(C)C)c(N)nc2cc1F (stereo not shown) [Example 98, 3-(2-amino-7-fluoro-6-(3-methyl-2-pyridinyl)-3-quinolinyl)-N-(3,3-dimethylbutyl)-2-methylpropanamide] | > 6.30 | > 6.30 | > 7.30 |  | 
11 | Nc1nc2ccc(-c3cccc(F)c3)cc2cc1CCC(=O)NCC1CCCCC1 [Example 43, 3-(2-amino-6-(3-fluorophenyl)quinolin-3-yl)-N-(cyclohexylmethyl)propanamide] | 6.00 to 6.30 | 5.30 to 6.00 |  |  | 
12 | Cc1cccc(C(=O)N2CCCC2)c1-c1ccc2nc(N)c(CC(C)C(=O)NCc3ccccc3)cc2c1 (stereo not shown) [Example 151, 3-(2-amino-6-(2-methyl-6-(pyrrolidine-1-carbonyl)phenyl)quinolin-3-yl)-N-benzyl-2-methylpropanamide] | > 6.30 | > 6.30 |  |  | 
13 | CCn1ccc(CNC(=O)CCc2cc3cc(-c4ccccc4C)ccc3nc2N)n1 [Example 59, 3-(2-amino-6-o-tolylquinolin-3-yl)-N-((1-ethyl-1H-pyrazol-3-yl)methyl)propanamide] | > 6.30 | 5.30 to 6.00 |  |  | 
14 | Cc1ccccc1-c1ccc2nc(N)c(CCC(=O)NC3CCOCC3)cc2c1 [Example 15, 3-(2-amino-6-o-tolylquinolin-3-yl)-N-(tetrahydro-2H-pyran-4-yl)propanamide] | > 6.30 | < 5.30 |  |  | 
15 | COc1ccccc1[C@@H](C)NC(=O)C(C)Cc1cc2cc(-c3ccccc3C)ccc2nc1N (stereo partly drawn) [Example 76, 3-(2-amino-6-o-tolylquinolin-3-yl)-N-((R)-1-(2-methoxyphenyl)ethyl)-2-methylpropanamide] | > 6.30 | 5.30 to 6.00 |  |  | 
16 | Cc1ccccc1-c1ccc2nc(N)c(C(C)CC(=O)NCC3CCCCC3)cc2c1 (stereo not shown) [Example 6, 3-(2-amino-6-o-tolylquinolin-3-yl)-N-(cyclohexylmethyl)butanamide] | > 6.30 | < 5.30 |  |  | 
17 | 3-(3-amino-7-o-tolylnaphthalen-2-yl)-N-(2-methoxy-2-methylpropyl)propanamide [Example 29] | 6.00 to 6.30 |  |  |  | 5.30 to 6.00
18 | CNC(=O)[C@@H](C)Cc1cc2cc(-c3c(C)cccc3C(=O)N3CCCC3)ccc2nc1N [Example 155, (S) 3-(2-amino-6-(2-methyl-6-(pyrrolidine-1-carbonyl)phenyl)quinolin-3-yl)-N,2-dimethylpropanamide] | 5.30 to 6.00 | 5.30 to 6.00 |  |  | 
19 | 3-(3-amino-7-o-tolylnaphthalen-2-yl)-N-((R)-1-cyclohexylethyl)propanamide [Example 31] | > 6.30 |  |  |  | < 5.30
20 | Cc1nccn1-c1ccc2nc(N)c(CCC(=O)NCC3CCCCC3)cc2c1 [Example 4, 3-(2-amino-6-(2-methyl-1H-imidazol-1-yl)quinolin-3-yl)-N-(cyclohexylmethyl)propanamide] | < 5.30 | < 5.30 |  |  | 
21 | Cc1ccccc1-c1ccc2nc(N)c(CCC(=O)NCCC3CC3)cc2c1 [Example 115, 3-(2-amino-6-o-tolylquinolin-3-yl)-N-(2-cyclopropylethyl)propanamide] | > 6.30 | 5.30 to 6.00 |  |  | 
22 | Nc1nc2ccc(-c3ccc(F)cc3)cc2cc1CCC(=O)NCC1CCCCC1 [Example 65, 3-(2-amino-6-(4-fluorophenyl)quinolin-3-yl)-N-(cyclohexylmethyl)propanamide] | > 6.30 | < 5.30 |  |  | 
23 | CC(Cc1cc2cc(-c3ncccc3CCN(C)C)ccc2nc1N)C(=O)NCCC(C)(C)C (stereo not shown) [Example 127, 3-(2-amino-6-(3-(2-(dimethylamino)ethyl)pyridin-2-yl)quinolin-3-yl)-N-(3,3-dimethylbutyl)-2-methylpropanamide] | > 6.30 | > 6.30 |  |  | 
24 | 3-(3-amino-7-o-tolylnaphthalen-2-yl)-N-(2,3-dihydro-1H-inden-1-yl)propanamide [Example 57] | > 6.30 |  |  |  | 5.30 to 6.00
25 | Cc1cccnc1-c1ccc2nc(N)c(CC(C)C(=O)NCC(F)(F)F)cc2c1 (stereo not shown) [Example 110, 3-(2-amino-6-(3-methylpyridin-2-yl)quinolin-3-yl)-2-methyl-N-(2,2,2-trifluoroethyl)propanamide] | 6.00 to 6.30 | 6.00 to 6.30 |  |  | 
26 | Cc1ccccc1-c1ccc2nc(N)c(CCC(=O)NCCC(C)(C)O)cc2c1 [Example 141, 3-(2-amino-6-(2-methylphenyl)-3-quinolinyl)-N-(3-hydroxy-3-methylbutyl)propanamide] | > 6.30 | 6.00 to 6.30 |  |  | 
27 | Cc1cccnc1-c1ccc2nc(N)c(CC(C)C(=O)NCC3CCC(F)(F)CC3)cc2c1 (stereo not shown) [Example 117, 3-(2-amino-6-(3-methylpyridin-2-yl)quinolin-3-yl)-N-((4,4-difluorocyclohexyl)methyl)-2-methylpropanamide] | > 6.30 | 6.00 to 6.30 |  |  | 
28 | Cc1ccccc1-c1ccc2nc(N)c(CCC(=O)NCC(C)(C)O)cc2c1 [Example 144, 3-(2-amino-6-(2-methylphenyl)-3-quinolinyl)-N-(2-hydroxy-2-methylpropyl)propanamide] | 5.30 to 6.00 | 5.30 to 6.00 |  |  | 
29 | CC(Cc1cc2cc(C3CC3C)ccc2nc1N)C(=O)NCCC(C)(C)C (stereo not shown) [Example 7, 3-(2-amino-6-(2-methylcyclopropyl)quinolin-3-yl)-N-(3,3-dimethylbutyl)-2-methylpropanamide] | > 6.30 | 5.30 to 6.00 |  |  | 
30 | Nc1nc2ccc(-c3ccccc3)cc2cc1CCC(=O)NCC1CCCCC1 [Example 45, 3-(2-amino-6-phenylquinolin-3-yl)-N-(cyclohexylmethyl)propanamide] | 6.00 to 6.30 | < 5.30 |  |  | 
